Data on 1 compound can be found in PMC7065195 (2020).

In experiment [1] the test system is poly dAdT–poly dAdT (poly(dA-dT)2, AT-DNA) (DNA, polymer) AT. Nature of the experiment: UV thermal melting at 260 nm. As to conditions: Na+ (sodium cacodylate, I=0.05 M); pH 7.0; ratio r=[compound]/[polynucleotide]=0.1; per base.
The test system of experiment [2] is poly A–poly U (poly rA–poly rU, AU-RNA) (RNA, polymer) A/U. Nature of the experiment: UV thermal melting at 260 nm. As to conditions: Na+ (sodium cacodylate, I=0.05 M); pH 7.0; ratio r=[compound]/[polynucleotide]=0.1; per base.

With `Cc1cc(-c2ccc(-c3ccc(-c4cc(C)c(B(c5c(C)cc([N+](C)(C)C)cc5C)c5c(C)cc([N+](C)(C)C)cc5C)c(C)c4)s3)s2)cc(C)c1B(c1c(C)cc([N+](C)(C)C)cc1C)c1c(C)cc([N+](C)(C)C)cc1C`, the ΔTm entry in experiment [1] is “+10.0 ± 0.5 °C”; in experiment [2], “+9.5 ± 0.5 °C”.
